Data: ChEMBL document CHEMBL1201862, “PubChem BioAssay data set” (2004)
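These data come from cells grown in 96-well plates and exposed to compound for 48 hours at five concentrations. At the GI50, growth is halved.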 Calls of active or inactive are those of the source. Cut-off read from the data, not from the text of the source: active = GI50 up to about 1.1 µM and inactive = higher.

What was measured:
Test in all cases: growth of human tumour cells (NCI), 48 h
[1] = test system: SK-MEL-28
[2] = test system: OVCAR-8
[3] = test system: MDA-N
[4] = test system: CCRF-CEM
[5] = test system: ACHN
[6] = test system: IGROV-1
[7] = test system: SN12C
[8] = test system: BT-549
[9] = test system: HCT-15
[10] = test system: SF-539
[11] = test system: NCI/ADR-RES
[12] = test system: MCF7
[13] = test system: COLO 205
[14] = test system: UACC-257
[15] = test system: NCI-H226
[16] = test system: HL-60
[17] = test system: SK-MEL-2
[18] = test system: 786-0
[19] = test system: NCI-H522
[20] = test system: NCI-H23
[21] = test system: PC-3
[22] = test system: LOX IMVI
[23] = test system: SR
[24] = test system: K562
[25] = test system: UACC-62
[26] = test system: HOP-92
[27] = test system: SF-268
[28] = test system: MDA-MB-231
[29] = test system: SK-MEL-5
[30] = test system: HCT-116
[31] = test system: A498
[32] = test system: U-251
[33] = test system: TK-10
[34] = test system: Malme-3M
[35] = test system: SW-620
[36] = test system: NCI-H460
[37] = test system: MOLT-4
[38] = test system: HCC 2998
[39] = test system: RPMI-8226
[40] = test system: Hs-578T
[41] = test system: SF-295
[42] = test system: CAKI-1
[43] = test system: SNB-75
[44] = test system: OVCAR-5
[45] = test system: T47D
[46] = test system: EKVX
[47] = test system: HOP-62
[48] = test system: HT-29
[49] = test system: MDA-MB-435
[50] = test system: DU-145
[51] = test system: KM12
[52] = test system: OVCAR-4
[53] = test system: RXF 393
[54] = test system: SNB-19
[55] = test system: UO-31
[56] = test system: OVCAR-3
[57] = test system: SK-OV-3
[58] = test system: A549

## Nc1c2c(nc3ccccc13)CCCCCC2
[1]
  GI50: 13.8 µM (inactive)
[2]
  GI50: 30.4 µM (inactive)
[3]
  GI50: 16.5 µM (inactive)
[4]
  GI50: 15.6 µM (inactive)
[5]
  GI50: 27.1 µM (inactive)
[6]
  GI50: 22.4 µM (inactive)
[7]
  GI50: 40.7 µM (inactive)
[8]
  GI50: 84.5 µM (inactive)
[9]
  GI50: 30.3 µM
[10]
  GI50: 16.1 µM (inactive)
[11]
  GI50: 37.5 µM (inactive)
[12]
  GI50: 26.9 µM (inactive)
[13]
  GI50: 14.2 µM (inactive)
[14]
  GI50: 15.4 µM (inactive)
[15]
  GI50: 43.3 µM (inactive)
[16]
  GI50: 7.26 µM (inactive)
[17]
  GI50: 13.7 µM (inactive)
[18]
  GI50: 16.4 µM (inactive)
[19]
  GI50: 19.6 µM (inactive)
[20]
  GI50: 42.1 µM (inactive)
[21]
  GI50: 20.8 µM (inactive)
[22]
  GI50: 16 µM (inactive)
[23]
  GI50: 15.7 µM (inactive)
[24]
  GI50: 21.5 µM (inactive)
[25]
  GI50: 16.6 µM (inactive)
[26]
  GI50: 13.6 µM (inactive)
[27]
  GI50: 39.3 µM (inactive)
[28]
  GI50: 18.5 µM (inactive)
[29]
  GI50: 17.5 µM (inactive)
[30]
  GI50: 20.8 µM (inactive)
[31]
  GI50: 20.7 µM (inactive)
[32]
  GI50: 26.8 µM (inactive)
[33]
  GI50: 15.2 µM (inactive)
[34]
  GI50: 18 µM (inactive)
[35]
  GI50: 17.1 µM (inactive)
[36]
  GI50: 16.6 µM (inactive)
[37]
  GI50: 27.2 µM (inactive)
[38]
  GI50: 14.4 µM (inactive)
[39]
  GI50: 19.1 µM (inactive)
[40]
  GI50: 38.5 µM (inactive)

## O=P(O)(CN1CCN(CP(=O)(O)c2ccccc2)CCN(CP(=O)(O)c2ccccc2)CC1)c1ccccc1
[1]
  GI50: > 100 µM (inactive)
[41]
  GI50: > 100 µM (inactive)
[42]
  GI50: 45.8 µM (inactive)
[2]
  GI50: > 100 µM (inactive)
[43]
  GI50: > 100 µM (inactive)
[3]
  GI50: 67.8 µM (inactive)
[4]
  GI50: > 100 µM (inactive)
[44]
  GI50: > 100 µM (inactive)
[5]
  GI50: > 100 µM (inactive)
[6]
  GI50: > 100 µM (inactive)
[45]
  GI50: > 100 µM (inactive)
[8]
  GI50: > 100 µM (inactive)
[10]
  GI50: 67.1 µM (inactive)
[11]
  GI50: > 100 µM (inactive)
[12]
  GI50: 28.1 µM (inactive)
[13]
  GI50: 69.3 µM (inactive)
[46]
  GI50: > 100 µM (inactive)
[47]
  GI50: > 100 µM (inactive)
[15]
  GI50: > 100 µM (inactive)
[16]
  GI50: > 100 µM (inactive)
[18]
  GI50: 78 µM (inactive)
[48]
  GI50: 26.1 µM (inactive)
[20]
  GI50: > 100 µM (inactive)
[49]
  GI50: 93.1 µM (inactive)
[22]
  GI50: 67.3 µM (inactive)
[50]
  GI50: > 100 µM (inactive)
[24]
  GI50: > 100 µM (inactive)
[25]
  GI50: > 10 µM (inactive)
[27]
  GI50: > 100 µM (inactive)
[51]
  GI50: 47.9 µM (inactive)
[29]
  GI50: 69.3 µM (inactive)
[52]
  GI50: 32.1 µM (inactive)
[30]
  GI50: 36.8 µM (inactive)
[31]
  GI50: 9.16 µM (inactive)
[32]
  GI50: 47.8 µM (inactive)
[53]
  GI50: 80 µM (inactive)
[54]
  GI50: > 100 µM (inactive)
[55]
  GI50: > 100 µM (inactive)
[33]
  GI50: 92.5 µM (inactive)
[34]
  GI50: 56.2 µM (inactive)
[56]
  GI50: 56.6 µM (inactive)
[35]
  GI50: 45.6 µM (inactive)
[36]
  GI50: 36 µM (inactive)
[37]
  GI50: 26.4 µM (inactive)
[38]
  GI50: 78.2 µM (inactive)
[39]
  GI50: 51.4 µM (inactive)
[57]
  GI50: > 100 µM (inactive)
[58]
  GI50: 47.6 µM (inactive)
